PubChem BioAssay AID1963439 (Molecular Pharmacology Branch, DTP, NCI, 2024)
“And” between values parts separate entries of the source, which are not always exact repeats. Identical values can stand only once.

Test system: NCI-H196 complex spheroids with HUVEC/MSC, growth % T/C
Experiment: Anticancer human tumor NCI-H196 cell line growth inhibition [Asc];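 also: spheroids exposed to compound for 7 days before measurement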;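 as to viability, T/C: 100% = DMSO vehicle control wells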
Details: for viability, T/C: stronger effect = lower value
Outline: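 Spheroid model: tumor line + HUVEC + hMSC. Single agents and combinations; top conc. at/near clinical Cmax (10 microM if undetermined), half-log dilutions. DMSO stocks at 800-fold test concentration.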

[1] = curve of first compound, second compound 0.1 µM
[2] = curve of first compound, second compound 0.316 µM
[3] = curve of first compound, second compound 1 µM
[4] = second compound 0.1 µM, first compound 0.0316 µM
[5] = second compound 0.1 µM, first compound 0.1 µM
[6] = second compound 0.316 µM, first compound 0.0316 µM
[7] = second compound 0.316 µM, first compound 0.1 µM
[8] = second compound 1 µM, first compound 0.0316 µM
[9] = second compound 1 µM, first compound 0.1 µM
[10] = curve of first compound, second compound 3.16 µM
[11] = curve of first compound, second compound 10 µM

Cn1ncnc1[C@H]1c2n[nH]c(=O)c3cc(F)cc(c23)N[C@@H]1c1ccc(F)cc1 + CNC(C)C(=O)NC1CN(S(=O)(=O)c2cccc(S(=O)(=O)N3CCC4CCC(C(=O)NC(c5ccccc5)c5ccccc5)N4C(=O)C(NC(=O)C(C)NC)C3)c2)CCC2CCC(C(=O)NC(c3ccccc3)c3ccccc3)N2C1=O
IC50 (curve of first compound, second compound 0.01 µM): < 0.000316 µM | IC50 (curve of first compound, second compound 0.0316 µM): < 0.000316 µM | IC50 [1]: < 0.000316 µM | IC50 [2]: < 0.000316 µM | IC50 [3]: < 0.000316 µM | viability, T/C (second compound 0.01 µM, first compound 0.000316 µM): 5.99% | viability, T/C (second compound 0.01 µM, first compound 0.001 µM): 6.41% | viability, T/C (second compound 0.01 µM, first compound 0.00316 µM): 5.39% | viability, T/C (second compound 0.01 µM, first compound 0.01 µM): 5.55% | viability, T/C (second compound 0.01 µM, first compound 0.0316 µM): 9.54% | viability, T/C (second compound 0.01 µM, first compound 0.1 µM): 6.44% | viability, T/C (second compound 0.0316 µM, first compound 0.000316 µM): 7.02% | viability, T/C (second compound 0.0316 µM, first compound 0.001 µM): 6.75% | viability, T/C (second compound 0.0316 µM, first compound 0.00316 µM): 5.6% | viability, T/C (second compound 0.0316 µM, first compound 0.01 µM): 4.53% | viability, T/C (second compound 0.0316 µM, first compound 0.0316 µM): 3.1% | viability, T/C (second compound 0.0316 µM, first compound 0.1 µM): 4.55% | viability, T/C (second compound 0.1 µM, first compound 0.000316 µM): 4.37% | viability, T/C (second compound 0.1 µM, first compound 0.001 µM): 3.32% | viability, T/C (second compound 0.1 µM, first compound 0.00316 µM): 4.82% | viability, T/C (second compound 0.1 µM, first compound 0.01 µM): 3.9% | viability, T/C [4]: 2.51% | viability, T/C [5]: 3.65% | viability, T/C (second compound 0.316 µM, first compound 0.000316 µM): 3.1% | viability, T/C (second compound 0.316 µM, first compound 0.001 µM): 3.37% | viability, T/C (second compound 0.316 µM, first compound 0.00316 µM): 3.42% | viability, T/C (second compound 0.316 µM, first compound 0.01 µM): 3.57% | viability, T/C [6]: 2.58% | viability, T/C [7]: 4.61% | viability, T/C (second compound 1 µM, first compound 0.000316 µM): 2.27% | viability, T/C (second compound 1 µM, first compound 0.001 µM): 4.58% | viability, T/C (second compound 1 µM, first compound 0.00316 µM): 3.37% | viability, T/C (second compound 1 µM, first compound 0.01 µM): 3% | viability, T/C [8]: 3.76% | viability, T/C [9]: 5.53%

O=C(c1cc(Cc2n[nH]c(=O)c3ccccc23)ccc1F)N1CCN(C(=O)C2CC2)CC1
viability, T/C (compound 0.0316 µM): 94% and 96.9% | viability, T/C (compound 0.1 µM): 96.5% and 113% | viability, T/C (compound 0.316 µM): 101% and 94.4% | viability, T/C (compound 1 µM): 99.6% and 101% | viability, T/C (compound 3.16 µM): 96.3% and 102% | viability, T/C (compound 10 µM): 97.1% and 97.2% | IC50 (curve of compound): > 10 µM

O=C(c1ccc(F)c(F)c1Nc1ccc(I)cc1F)N1CC(O)([C@@H]2CCCCN2)C1
viability, T/C (compound 0.00316 µM): 94.1% and 97.7% and 117% | viability, T/C (compound 0.01 µM): 116% and 99.4% and 109% | viability, T/C (compound 0.0316 µM): 98.1% and 97.8% and 122% | viability, T/C (compound 0.1 µM): 116% and 111% and 136% | viability, T/C (compound 0.316 µM): 132% and 119% and 145% | viability, T/C (compound 1 µM): 126% and 119% and 145% | IC50 (curve of compound): > 1 µM

Cc1nc(N2CCC3(CC2)COC(C)C3N)c(CO)nc1Sc1ccnc(N)c1Cl (centres undefined) + Cc1c(S(C)(=O)=O)c(-c2cc(F)cc(N3CCN(c4ccc(NS(=O)(=O)c5ccc(NC(CCN6CCC(C(=O)OCCCP(=O)(O)O)CC6)CSc6ccccc6)c(S(=O)(=O)C(F)(F)F)c5)cc4)CC3)c2)c(-c2ccc(Cl)cc2)n1C(C)C
IC50 [1]: 1.35 µM | IC50 [2]: 1.14 µM | IC50 [3]: 1.15 µM | IC50 [10]: 0.93 µM | IC50 [11]: 1.17 µM | viability, T/C (second compound 0.1 µM, first compound 0.00949 µM): 111% | viability, T/C (second compound 0.1 µM, first compound 0.03 µM): 118% | viability, T/C (second compound 0.1 µM, first compound 0.0949 µM): 96.2% | viability, T/C (second compound 0.1 µM, first compound 0.3 µM): 87.8% | viability, T/C (second compound 0.1 µM, first compound 0.949 µM): 60.1% | viability, T/C (second compound 0.1 µM, first compound 3 µM): 26.3% | viability, T/C (second compound 0.316 µM, first compound 0.00949 µM): 93.4% | viability, T/C (second compound 0.316 µM, first compound 0.03 µM): 102% | viability, T/C (second compound 0.316 µM, first compound 0.0949 µM): 109% | viability, T/C (second compound 0.316 µM, first compound 0.3 µM): 93.8% | viability, T/C (second compound 0.316 µM, first compound 0.949 µM): 55.2% | viability, T/C (second compound 0.316 µM, first compound 3 µM): 24% | viability, T/C (second compound 1 µM, first compound 0.00949 µM): 93.1% | viability, T/C (second compound 1 µM, first compound 0.03 µM): 97.9% | viability, T/C (second compound 1 µM, first compound 0.0949 µM): 98.1% | viability, T/C (second compound 1 µM, first compound 0.3 µM): 87% | viability, T/C (second compound 1 µM, first compound 0.949 µM): 55.4% | viability, T/C (second compound 1 µM, first compound 3 µM): 24% | viability, T/C (second compound 3.16 µM, first compound 0.00949 µM): 93.9% | viability, T/C (second compound 3.16 µM, first compound 0.03 µM): 97.8% | viability, T/C (second compound 3.16 µM, first compound 0.0949 µM): 103% | viability, T/C (second compound 3.16 µM, first compound 0.3 µM): 84.9% | viability, T/C (second compound 3.16 µM, first compound 0.949 µM): 49.9% | viability, T/C (second compound 3.16 µM, first compound 3 µM): 22.9% | viability, T/C (second compound 10 µM, first compound 0.00949 µM): 84.7% | viability, T/C (second compound 10 µM, first compound 0.03 µM): 93.7% | viability, T/C (second compound 10 µM, first compound 0.0949 µM): 88.5% | viability, T/C (second compound 10 µM, first compound 0.3 µM): 78% | viability, T/C (second compound 10 µM, first compound 0.949 µM): 55.9% | viability, T/C (second compound 10 µM, first compound 3 µM): 24.7%

O=C(c1cc(Cc2n[nH]c(=O)c3ccccc23)ccc1F)N1CCN(C(=O)C2CC2)CC1 + Cc1c(S(C)(=O)=O)c(-c2cc(F)cc(N3CCN(c4ccc(NS(=O)(=O)c5ccc(NC(CCN6CCC(C(=O)OCCCP(=O)(O)O)CC6)CSc6ccccc6)c(S(=O)(=O)C(F)(F)F)c5)cc4)CC3)c2)c(-c2ccc(Cl)cc2)n1C(C)C
IC50 [1]: > 10 µM | IC50 [2]: > 10 µM | IC50 [3]: > 10 µM | IC50 [10]: > 10 µM | IC50 [11]: > 10 µM | viability, T/C [4]: 98% | viability, T/C [5]: 93.4% | viability, T/C (second compound 0.1 µM, first compound 0.316 µM): 85.8% | viability, T/C (second compound 0.1 µM, first compound 1 µM): 95.6% | viability, T/C (second compound 0.1 µM, first compound 3.16 µM): 99.8% | viability, T/C (second compound 0.1 µM, first compound 10 µM): 89.5% | viability, T/C [6]: 88.8% | viability, T/C [7]: 102% | viability, T/C (second compound 0.316 µM, first compound 0.316 µM): 103% | viability, T/C (second compound 0.316 µM, first compound 1 µM): 88.3% | viability, T/C (second compound 0.316 µM, first compound 3.16 µM): 94.3% | viability, T/C (second compound 0.316 µM, first compound 10 µM): 87.1% | viability, T/C [8]: 91.4% | viability, T/C [9]: 96.9% | viability, T/C (second compound 1 µM, first compound 0.316 µM): 88.2% | viability, T/C (second compound 1 µM, first compound 1 µM): 89% | viability, T/C (second compound 1 µM, first compound 3.16 µM): 83.5% | viability, T/C (second compound 1 µM, first compound 10 µM): 81.2% | viability, T/C (second compound 3.16 µM, first compound 0.0316 µM): 89.9% | viability, T/C (second compound 3.16 µM, first compound 0.1 µM): 83.6% | viability, T/C (second compound 3.16 µM, first compound 0.316 µM): 84.5% | viability, T/C (second compound 3.16 µM, first compound 1 µM): 86% | viability, T/C (second compound 3.16 µM, first compound 3.16 µM): 78.3% | viability, T/C (second compound 3.16 µM, first compound 10 µM): 66.3% | viability, T/C (second compound 10 µM, first compound 0.0316 µM): 73.2% | viability, T/C (second compound 10 µM, first compound 0.1 µM): 74.9% | viability, T/C (second compound 10 µM, first compound 0.316 µM): 71.6% | viability, T/C (second compound 10 µM, first compound 1 µM): 71.8% | viability, T/C (second compound 10 µM, first compound 3.16 µM): 74% | viability, T/C (second compound 10 µM, first compound 10 µM): 57.9%
